Data taken from patent US20110123490A1, “HE[…] COMPOUNDS” (priority 2009, published 2011).

Assays:
[1] = target: T1, HCV polymerase (NS5B570n-Con1) (Hepatitis C virus genotype 1b, UniProt Q9WMX2); experiment: HCV NS5B RNA polymerase activity assay (incorporation of radiolabeled nucleotide into RNA); assay type: biochemical, HCV Con1 strain
T1 construct: contains a 21 amino acid deletion at the C-terminus relative to the full-length HCV polymerase; 6-histidine (N); made in house; host or cells: E. coli BL21(DE) pLysS, plasmid pET17b
Method: The enzymatic activity of HCV polymerase (NS5B570n-Con1) was measured as the incorporation of radiolabeled nucleotide monophosphates into acid insoluble RNA products. Unincorporated radiolabeled substrate was removed by filtration and scintillant was added to the washed and dried filter plate containing radiolabeled RNA product. The amount of RNA product generated by NS5B570-Con1 at the end of the reaction was directly proportional to the amount of light emitted by the scintillant.
The N-terminal 6-histidine tagged HCV polymerase, derived from HCV Con1 strain, genotype 1b (NS5B570n-Con1) contains a 21 amino acid deletion at the C-terminus relative to the full-length HCV polymerase and was purified from E. coli strain BL21(DE) pLysS. The construct, containing the coding sequence of HCV NS5B Con1 (GenBank accession number AJ242654) was inserted into the plasmid construct pET17b, downstream of a T7 promoter expression cassette and transformed into E. coli. A single colony was grown overnight as a starter culture and later used inoculate 10 L of LB media supplemented with 100 μg/mL ampicillin at 37° C. Protein expression was induced by the addition of 0.25 mM isopropyl-β-D-thiogalactopyranoside (IPTG) when optical density at […] of the culture was between 0.6 and 0.8 and cells were harvested after 16 to 18 h at 30° C. NS5B570n-Con1 was purified to homogeneity using a three-step protocol including subsequent column chromatography on Ni-NTA, SP-Sepharose HP and Superdex 75 resins.
Each 50 μL enzymatic reaction contained 20 nM RNA template derived from the complementary sequence of the Internal Ribosome Entry Site (cIRES), 20 nM NS5B570n-Con1 enzyme, 0.5 μCi of tritiated UTP (Perkin Elmer catalog no. TRK-412; specific activity: 30 to 60 Ci/mmol; stock solution concentration from 7.5×10^−5 M to 20.6×10^−6 M), 1 μM each ATP, CTP, and GTP, 40 mM Tris-HCl pH 8.0, 40 mM NaCl, 4 mM DTT (dithiothreitol), 4 mM MgCl2, and 5 μL of compound serial diluted in DMSO. Reaction mixtures were assembled in 96-well filter plates (cat #MADVN0B, Millipore Co.) and incubated for 2 h at 30° C. Reactions were stopped by addition of 10% final (v/v) trichloroacetic acid and incubated for 40 min at 4° C. […]
The amount of light emitted from the scintillant was converted to counts per minute (CPM) on a Topcount® plate reader (Perkin-Elmer, Energy Range: Low, Efficiency Mode Normal, Count Time: 1 min, Background Subtract: none, Cross talk reduction: Off).
Data was analyzed in Excel® (Microsoft®) and ActivityBase® (Idbs®). […] All data was expressed as a percentage of the positive control. […]

[2] = system: HCV replicon cells (2209-23), genotype 1b replicon in Huh7 cells; experiment: HCV replicon assay (Renilla luciferase reporter); assay type: cell-based, HCV genotype 1b; conditions: Hepatitis C virus, Huh-7, 72 h; 2209-23 cells, three days incubation, luciferase readout
in vitro = conditions: human

SMILES	IC50 [1] [nM]	IC50 [2] [nM]	CC50 (in vitro) [nM]
CC1(C)COc2c(-n3ccc(=O)[nH]c3=O)cc(-c3ccc4cc(NS(C)(=O)=O)ccc4c3)cc21 [Compound I-1, N-{6-[7-(2,4-Dioxo-3,4-dihydro-2H-pyrimidin-1-yl)-3,3-dimethyl-2,3-dihydro-benzofuran-5-yl]-naphthalen-2-yl}-methanesulfonamide]	0.5	–	–
COc1c(-c2ccc3cc(NS(C)(=O)=O)ccc3c2)cc(-n2ccc(=O)[nH]c2=O)c2c1C(C)(C)CO2 [Compound I-2, N-{6-[7-(2,4-Dioxo-3,4-dihydro-2H-pyrimidin-1-yl)-4-methoxy-3,3-dimethyl-2,3-dihydro-benzofuran-5-yl]-naphthalen-2-yl}-methanesulfonamide]	0.6	5.2	12000
COc1c(-c2ccc3cc(NS(C)(=O)=O)ccc3c2)cc(N2CCC(=O)NC2=O)c2c1C(C)(C)CO2 [Compound I-3, N-{6-[7-(2,4-Dioxo-tetrahydro-pyrimidin-1-yl)-4-methoxy-3,3-dimethyl-2,3-dihydro-benzofuran-5-yl]-naphthalen-2-yl}-methanesulfonamide]	4.7	–	–
CC1(C)COc2c(-c3ccc4cc(NS(C)(=O)=O)ccc4c3)cc(-n3ccc(=O)[nH]c3=O)cc21 [Compound I-4, N-{6-[5-(2,4-Dioxo-3,4-dihydro-2H-pyrimidin-1-yl)-3,3-dimethyl-2,3-dihydro-benzofuran-7-yl]-naphthalen-2-yl}-methanesulfonamide]	0.9	106	2700
